In PubChem BioAssay AID1259407 (Chemical Carcinogenesis Research Information System (CCRIS), 2018):
Calls of active or inactive are those of the source. How the calls were made is not given here.

System: CCRIS mutagenicity, Ames/micronucleus/aberration tests
Assay: CCRIS mutagenicity studies
Source text: The CCRIS database contains chemical records with carcinogenicity, mutagenicity, tumor promotion, and tumor inhibition test results. It was developed by the National Cancer Institute (NCI). Data are derived from studies cited in primary journals, current awareness tools, NCI reports, and other sources. Test results have been reviewed by experts in carcinogenesis and mutagenesis.
CCRIS provides historical information from the years 1985 - 2011. It is no longer updated.
This is an archive assay for CCRIS mutagenicity studies.

[1] = Test System: AMES SALMONELLA TYPHIMURIUM, Strain/Indicator: TA98, Metabolic Activation: NONE, Method: STANDARD PLATE
[2] = Test System: AMES SALMONELLA TYPHIMURIUM, Strain/Indicator: TA98, Metabolic Activation: RAT, LIVER, S-9, PHENOBARBITAL, Method: STANDARD PLATE
[3] = Test System: AMES SALMONELLA TYPHIMURIUM, Strain/Indicator: TA100, Metabolic Activation: NONE, Method: STANDARD PLATE
[4] = Test System: AMES SALMONELLA TYPHIMURIUM, Strain/Indicator: TA100, Metabolic Activation: RAT, LIVER, S-9, PHENOBARBITAL, Method: STANDARD PLATE
[5] = Test System: AMES SALMONELLA TYPHIMURIUM, Strain/Indicator: TA98, Metabolic Activation: NONE, Method: PREINCUBATION
[6] = Test System: AMES SALMONELLA TYPHIMURIUM, Strain/Indicator: TA100, Metabolic Activation: NONE, Method: PREINCUBATION
[7] = Test System: AMES SALMONELLA TYPHIMURIUM, Strain/Indicator: TA100, Metabolic Activation: RAT, LIVER, S-9, AROCLOR 1254, Method: STANDARD PLATE
[8] = Test System: AMES SALMONELLA TYPHIMURIUM, Strain/Indicator: TA1535, Metabolic Activation: NONE, Method: STANDARD PLATE
[9] = Test System: AMES SALMONELLA TYPHIMURIUM, Strain/Indicator: TA1537, Metabolic Activation: NONE, Method: STANDARD PLATE
[10] = Test System: AMES SALMONELLA TYPHIMURIUM, Strain/Indicator: TA1538, Metabolic Activation: NONE, Method: STANDARD PLATE
[11] = Test System: AMES SALMONELLA TYPHIMURIUM, Strain/Indicator: TA1535, Metabolic Activation: NONE, Method: PREINCUBATION

With `N=C(N)c1ccc(-c2cc3ccc(C(=N)N)cc3[nH]2)cc1` the mutagenic call [1] was “inactive; negative”, the mutagenic call [2] was “inactive; negative” and the mutagenic call [3] was “inactive; negative”. For the same compound, the mutagenic call [4] was “inactive; negative” and the mutagenic call (Test System: E. COLI, Strain/Indicator: WP2, Metabolic Activation: NONE, Method: PREINCUBATION) was “inactive; negative”.
With `[O-][n+]1ccc2cnncc2c1` the mutagenic call [5] was “active; positive”, the mutagenic call (Test System: AMES SALMONELLA TYPHIMURIUM, Strain/Indicator: TA98, Metabolic Activation: RAT, LIVER, S-9, PCB, Method: PREINCUBATION) was “active; positive” and the mutagenic call [6] was “inactive; negative”. For the same compound, the mutagenic call (Test System: AMES SALMONELLA TYPHIMURIUM, Strain/Indicator: TA100, Metabolic Activation: RAT, LIVER, S-9, PCB, Method: PREINCUBATION) was “active; positive”.
`CCCCCC(=O)Cc1cc(O)cc2c1C(=O)Oc1cc(O)c(C(=O)O)c(CCCCC)c1O2` was tested, and the mutagenic call [5] was “inactive; negative”, the mutagenic call [1] was “inactive; negative” and the mutagenic call (Test System: AMES SALMONELLA TYPHIMURIUM, Strain/Indicator: TA98, Metabolic Activation: RAT, LIVER, S-9, Method: PREINCUBATION) was “inactive; negative”. For the same compound, the mutagenic call (Test System: AMES SALMONELLA TYPHIMURIUM, Strain/Indicator: TA98, Metabolic Activation: RAT, LIVER, S-9, Method: STANDARD PLATE) was “inactive; negative”, the mutagenic call [6] was “inactive; negative” and the mutagenic call [3] was “inactive; negative”. For the same compound, the mutagenic call (Test System: AMES SALMONELLA TYPHIMURIUM, Strain/Indicator: TA100, Metabolic Activation: RAT, LIVER, S-9, Method: PREINCUBATION) was “inactive; negative” and the mutagenic call (Test System: AMES SALMONELLA TYPHIMURIUM, Strain/Indicator: TA100, Metabolic Activation: RAT, LIVER, S-9, Method: STANDARD PLATE) was “inactive; negative”.
With `CNS(=O)(=O)c1ccc(NC(C)=O)cc1` the mutagenic call [5] was “inactive; negative”, the mutagenic call (Test System: AMES SALMONELLA TYPHIMURIUM, Strain/Indicator: TA98, Metabolic Activation: RAT, LIVER, S-9, AROCLOR 1254, Method: PREINCUBATION) was “inactive; negative” and the mutagenic call [6] was “inactive; negative”. The mutagenic call (Test System: AMES SALMONELLA TYPHIMURIUM, Strain/Indicator: TA100, Metabolic Activation: RAT, LIVER, S-9, AROCLOR 1254, Method: PREINCUBATION) was “inactive; negative”.
In the case of `COc1cc(N)c(OC)cc1N`, the mutagenic call [1] is reported as “inactive; negative”, the mutagenic call (Test System: AMES SALMONELLA TYPHIMURIUM, Strain/Indicator: TA98, Metabolic Activation: RAT, LIVER, S-9, AROCLOR 1254, Method: STANDARD PLATE) is reported as “active; positive” and the mutagenic call [3] is reported as “inactive; negative”. The mutagenic call [7] was “active; positive”, the mutagenic call [8] was “inactive; negative” and the mutagenic call (Test System: AMES SALMONELLA TYPHIMURIUM, Strain/Indicator: TA1535, Metabolic Activation: RAT, LIVER, S-9, AROCLOR 1254, Method: STANDARD PLATE) was “inactive; negative”. The mutagenic call [9] was “inactive; negative”, the mutagenic call (Test System: AMES SALMONELLA TYPHIMURIUM, Strain/Indicator: TA1537, Metabolic Activation: RAT, LIVER, S-9, AROCLOR 1254, Method: STANDARD PLATE) was “active; positive” and the mutagenic call [10] was “active; positive”. The mutagenic call (Test System: AMES SALMONELLA TYPHIMURIUM, Strain/Indicator: TA1538, Metabolic Activation: RAT, LIVER, S-9, AROCLOR 1254, Method: STANDARD PLATE) was “active; positive”.
`CCN=[N+]([O-])CC` was tested, and the mutagenic call (Test System: AMES SALMONELLA TYPHIMURIUM, Strain/Indicator: TA1535, Metabolic Activation: HAMSTER, LIVER, S-9, AROCLOR 1254, Method: PREINCUBATION) was “inactive; negative”, the mutagenic call [11] was “inactive; negative” and the mutagenic call (Test System: AMES SALMONELLA TYPHIMURIUM, Strain/Indicator: TA1535, Metabolic Activation: RAT, LIVER, S-9, AROCLOR 1254, Method: PREINCUBATION) was “inactive; negative”.
`COC1(O[C@H]2CC[C@H]3[C@@H]4CC[C@H]5C[C@@H]6S[C@@H]6C[C@]5(C)[C@H]4CC[C@]23C)CCCC1` was tested, and the mutagenic call [1] was “inactive; negative”, the mutagenic call (Test System: AMES SALMONELLA TYPHIMURIUM, Strain/Indicator: TA98, Metabolic Activation: S-9, Method: STANDARD PLATE) was “inactive; negative” and the mutagenic call [3] was “inactive; negative”. The mutagenic call (Test System: AMES SALMONELLA TYPHIMURIUM, Strain/Indicator: TA100, Metabolic Activation: S-9, Method: STANDARD PLATE) was “inactive; negative”, the mutagenic call (Test System: AMES SALMONELLA TYPHIMURIUM, Strain/Indicator: TA1537, Metabolic Activation: S-9, Method: STANDARD PLATE) was “inactive; negative” and the mutagenic call (Test System: E. COLI, Strain/Indicator: WP2 (HCR), Metabolic Activation: NONE, Method: STANDARD PLATE) was “inactive; negative”. For the same compound, the mutagenic call (Test System: E. COLI, Strain/Indicator: WP2 (HCR), Metabolic Activation: S-9, Method: STANDARD PLATE) was “inactive; negative”.
In the case of `CCOC(=O)COc1ccc2c(=O)cc(-c3ccccc3)oc2c1`, the mutagenic call [1] is reported as “inactive; negative”, the mutagenic call [2] is reported as “inactive; negative” and the mutagenic call [3] is reported as “inactive; negative”. The mutagenic call [4] was “inactive; negative”, the mutagenic call [8] was “inactive; negative” and the mutagenic call (Test System: AMES SALMONELLA TYPHIMURIUM, Strain/Indicator: TA1535, Metabolic Activation: RAT, LIVER, S-9, PHENOBARBITAL, Method: STANDARD PLATE) was “inactive; negative”. The mutagenic call [9] was “inactive; negative”, the mutagenic call (Test System: AMES SALMONELLA TYPHIMURIUM, Strain/Indicator: TA1537, Metabolic Activation: RAT, LIVER, S-9, PHENOBARBITAL, Method: STANDARD PLATE) was “inactive; negative” and the mutagenic call [10] was “inactive; negative”. For the same compound, the mutagenic call (Test System: AMES SALMONELLA TYPHIMURIUM, Strain/Indicator: TA1538, Metabolic Activation: RAT, LIVER, S-9, PHENOBARBITAL, Method: STANDARD PLATE) was “inactive; negative”.
For `CC(N)CN` (stereo unspecified), the mutagenic call (Test System: AMES SALMONELLA TYPHIMURIUM, Strain/Indicator: TA98, Metabolic Activation: HAMSTER, LIVER, S-9, AROCLOR 1254 (10%), Method: PREINCUBATION) was “inactive; negative”, the mutagenic call [5] was “inactive; negative” and the mutagenic call (Test System: AMES SALMONELLA TYPHIMURIUM, Strain/Indicator: TA98, Metabolic Activation: RAT, LIVER, S-9, AROCLOR 1254 (10%), Method: PREINCUBATION) was “inactive; negative”. For the same compound, the mutagenic call (Test System: AMES SALMONELLA TYPHIMURIUM, Strain/Indicator: TA100, Metabolic Activation: HAMSTER, LIVER, S-9, AROCLOR 1254 (10%), Method: PREINCUBATION) was “inactive; negative”, the mutagenic call [6] was “inactive; negative” and the mutagenic call (Test System: AMES SALMONELLA TYPHIMURIUM, Strain/Indicator: TA100, Metabolic Activation: RAT, LIVER, S-9, AROCLOR 1254 (10%), Method: PREINCUBATION) was “inactive; negative”. The mutagenic call (Test System: AMES SALMONELLA TYPHIMURIUM, Strain/Indicator: TA1535, Metabolic Activation: HAMSTER, LIVER, S-9, AROCLOR 1254 (10%), Method: PREINCUBATION) was “inactive; negative”, the mutagenic call [11] was “inactive; negative” and the mutagenic call (Test System: AMES SALMONELLA TYPHIMURIUM, Strain/Indicator: TA1535, Metabolic Activation: RAT, LIVER, S-9, AROCLOR 1254 (10%), Method: PREINCUBATION) was “inactive; negative”. For the same compound, the mutagenic call (Test System: AMES SALMONELLA TYPHIMURIUM, Strain/Indicator: TA1537, Metabolic Activation: HAMSTER, LIVER, S-9, AROCLOR 1254 (10%), Method: PREINCUBATION) was “inactive; negative”, the mutagenic call (Test System: AMES SALMONELLA TYPHIMURIUM, Strain/Indicator: TA1537, Metabolic Activation: NONE, Method: PREINCUBATION) was “inactive; negative” and the mutagenic call (Test System: AMES SALMONELLA TYPHIMURIUM, Strain/Indicator: TA1537, Metabolic Activation: RAT, LIVER, S-9, AROCLOR 1254 (10%), Method: PREINCUBATION) was “inactive; negative”.
`OC1C=C2c3cc4ccccc4cc3-c3cccc(c32)C1O` (stereo unspecified) was tested, and the mutagenic call [7] was “active; positive”.
For `O=[N+]([O-])c1c2c(c3ccc4cccc5ccc1c3c45)CCCC2O` (stereo unspecified), the mutagenic call [1] was “inactive; negative” and the mutagenic call [3] was “inactive; negative”.
